In patent US20240002326A1, “COMPOUNDS AND USE THEREOF IN METHODS OF TREATMENT” (The University of Queensland, priority 2016, published 2024):

Experiments:
SOX18[109] HMG fragment = SOX18[109] HMG fragment (Mus musculus (Mouse), UniProt P43680); experiment: FP DNA-binding competition assay, SOX18[109] HMG fragment; conditions: for remaining activity at 50 µM / remaining activity at 200 µM: SOX18/DNA binding; for remaining activity at 50 µM: read-out: FP bound fraction (%) 50 μM; for remaining activity at 200 µM: read-out: FP bound fraction (%) 200 μM; for SOX18-DNA binding inhibition (FP, words): SAR library, SOX18[109]
Procedure: Mouse SOX HMG fragments. The HMG domains of mouse SOX2 (Group B), SOX11 (Group C), SOX6 (Group D), SOX9 (Group E), SOX18 (Group F) and SOX15 (Group G) were BP cloned from cDNA templates (IMAGE cDNA clone IDs: Sox18: 3967084; Sox9: 5354229; Sox4: 6822618) into a pDONRTM221 pENTRY vector, sequenced and recombined into a pETG20A or a pHisMBP expression plasmid using Gateway®LR Technology (Ng et al., 2012). Constructs were transformed into Escherichia coli BL21(DE3) cells (Luria-Bertani, 100 μg/ml Ampicillin).
(§1) The DNA-binding competition assay was performed in black 384-well plates, with mouse full length SOX18, or SOX-HMG fragments. All experiments were performed using a fluorescently-labelled Prox1-DNA element. Controls consisted of free labelled DNA (low FP milli-Polarization index, mP), labelled DNA in presence of protein (negative control, high mP), and labelled DNA and protein in presence of competing excess of unlabelled DNA (positive control, low mP)
(§2) The DNA-binding competition assay was performed in 25 uL, in black 384-well plates, using either 30 mM HEPES (N-2-Hydroxyethylpiperazine-N′-2-Ethanesulfonic Acid) (pH 7.5, with 100 mM KCl, 40 mM NaCl, 10 mM NH4OAc, […], 2 mM MgCl2, 0.5 mM EDTA, 0.01% NP-40) for mouse full length SOX18, or Tris-NaCl (10 mM Tris pH 8.0 and 100 mM NaCl) for SOX-HMG fragments. All experiments were performed using a 40 bp double-stranded Prox1-DNA element with 5′ fluorescein amidite (FAM) label (Sigma Proligo or InVitrogen). Optimum binding levels were obtained at 200 nM of mouse full length SOX18 and 60 nM of SOX-HMG fragment, in presence of 5 nM labelled DNA. Controls consisted of free labelled DNA (low FP milli-Polarization index, mP), labelled DNA in presence of protein (negative control, high mP), and labelled DNA and protein in presence of 400 time competing excess of unlabelled DNA (positive control, low mP). Depending on compound, final DMSO concentrations ranged from 2 to 3.33% v/v. After mixing protein, DNA probe and compound, plates were sealed and briskly agitated in the dark for 5 minutes at room temperature, 10 minutes at 37° C., and 30 minutes at room temperature, before reading fluorescence polarization on a Tecan M1000Pro (λexc=485 nm, λem=525 nm). All experiments were performed in triplicates.
In order to pinpoint the possible binding site of the small molecules, the FP assays were repeated with a shorter, DNA-binding centred protein fragment. The DNA binding domain of SOX TFs consists of the […] amino acid long High Mobility Group (HMG) box. The 109 amino-acid long SOX18 fragment (SOX18[109]) corresponds to residues 69-177 (numbering by mouse SOX18), which includes the HMG box (residues 78-149) and N- and C-terminal flanking sequences of 9 and 28 amino-acids, respectively.

[1] = Cytotoxicity assay (Alamar blue), HEK293; type: cell-based; conditions: human, HEK293 cells; HEK293, 24 h
Procedure: Cell toxicity was determined using Alamar blue, as previously described (McMillian et al., 2002). COS-7 cells were seeded as 7000 cells per well in black wall clear bottom 96-well plates in DMEM medium (Life Technologies Australia) with 10% FBS. HepG2 and HEK293 cell lines, from ATCC, were seeded as 5000 cells per well in black wall clear bottom 384-well cell culture plates in DMEM with 1% FBS. Cells were cultured for 24 h at 37° C., 5% CO2. A serial dilution of compounds was added, with a final DMSO concentration adjusted to 0.5% v/v. Cells were incubated for another 24 h. 1 Triton X-100 was used as negative control, and 0.5% DMSO as positive control. 5 μM Alamar blue was added to each well and fluorescence was measured (λexc=560 nm, λem=590 nm) after 2 h incubation at 37° C. Data were analysed using Prism software.

[2] = Cytotoxicity assay (Alamar blue), HepG2; type: cell-based; conditions: human, HepG2 cells; HepG2, 24 h
full-length mouse SOX18 = full-length mouse SOX18 (Mus musculus (Mouse), UniProt P43680); experiment: FP DNA-binding competition assay, full-length SOX18; conditions: full-length mouse SOX18, Prox1-DNA probe; for IC50: read-out: FP IC50 ± SD
Procedure: Full-length mouse SOX18. A N-terminally tagged mouse HIS-GST-SOX18 was recombinantly expressed in Sf9 cells, purified on GST resin (GE Healthcare Life Sciences, Sweden) and eluted in Tris buffer (50 mM Tris, 500 mM NaCl, 10 mM reduced glutathione, pH 8.0). cDNA clone of mouse Sox18 was PCR amplified and cloned into the pOPIN-GST vector, to generate N-terminally tagged HIS-GST-SOX18. A sequence verified construct was co-transfected with flashBACULTRA (Oxford Expression Technologies, Oxford, United Kingdom) baculovirus DNA onto Spodoptera frugiperda Sf9 cells to obtain recombinantly expressed HIS-GST-SOX18. High Five cells (BTI-TN-5B1-4) in Sf-900™ II serum-free medium were infected at cell density of 1.5×10^6 cells/mL with a multiplicity of infection (MOI) of 5 PFU/cell, and incubated at 21° C. for 144 h before harvest. The cell pellet from 100 mL of expression culture was resuspended in 30 mL of phosphate lysis buffer (50 mM sodium phosphate, 500 mM sodium chloride, 1% Triton X-100, 2 mM magnesium chloride, one tablet of cOmplete Protease Inhibitor Cocktail, pH 7.5) and sonicated on ice for 20 s. The cell lysate was centrifuged at 17,000×g for 40 min at 4° C. Supernatant was incubated with Benzonase Nuclease (Merck Millipore) for 1 h at room temperature for DNA degradation, before being mixed with 500 μL GST resin (GE Healthcare Life Sciences, Sweden) and incubated on a rotating wheel at room temperature for 1 h. The sample was centrifuged at 500×g for 1 min to remove unbound protein in the supernatant. The resin was further washed with 50 resin volumes (RV) wash buffer (50 mM sodium phosphate, 500 mM NaCl, pH 7.5), with unbound protein removed by centrifugation as above. Bound protein was eluted from the resin with 3×1 RV elution buffer (50 mM Tris, 500 mM NaCl, 10 mM reduced glutathione, pH 8.0), collecting the supernatant by centrifugation as above.
as §1, §2

Chain of full-length mouse SOX18 (P43680 whole entry): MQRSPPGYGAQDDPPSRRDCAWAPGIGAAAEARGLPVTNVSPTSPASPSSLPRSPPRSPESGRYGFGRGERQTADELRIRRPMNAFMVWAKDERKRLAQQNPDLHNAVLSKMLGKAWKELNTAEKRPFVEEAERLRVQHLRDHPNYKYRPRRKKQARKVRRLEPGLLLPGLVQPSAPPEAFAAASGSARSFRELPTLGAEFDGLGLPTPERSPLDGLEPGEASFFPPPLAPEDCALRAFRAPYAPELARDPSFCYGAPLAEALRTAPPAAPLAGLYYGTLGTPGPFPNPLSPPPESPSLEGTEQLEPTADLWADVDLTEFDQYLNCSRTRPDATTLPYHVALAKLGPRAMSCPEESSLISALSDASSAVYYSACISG
Chain of SOX18[109] HMG fragment (P43680 69-177): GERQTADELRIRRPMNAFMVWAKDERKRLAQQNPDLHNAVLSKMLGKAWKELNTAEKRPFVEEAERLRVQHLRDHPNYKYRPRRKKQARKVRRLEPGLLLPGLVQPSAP

Row | SMILES | remaining activity at 50 µM (SOX18[109] HMG fragment) [%] | remaining activity at 200 µM (SOX18[109] HMG fragment) [%] | CC50 at 24 h [1] [µM] | CC50 at 24 h [2] [µM] | FP IC50 ± SD (full-length mouse SOX18) | IC50 (full-length mouse SOX18) [µM] | SOX18-DNA binding inhibition (FP, words) (SOX18[109] HMG fragment)
1 | CCN(CC)C(=O)c1c(/C=C/c2ccc3ccccc3c2)cccc1OC [Sm16, (E)-N,N-diethyl-2-methoxy-6-(2-(naphthalene-2-yl)vinyl)benzamide] | 99.3 ± 6.2 | 109 ± 4.9 | > 100 |  |  |  | 
2 | COc1cc(/C=C/c2ccc3ccccc3c2)c(C(=O)O)c(OC)c1 [Sm27, (E)-2,4-dimethoxy-6-(2-(naphthalen-2-yl)vinyl)benzoic acid] | 97 ± 6.1 | 92.8 ± 21.7 | > 100 | > 100 |  |  | 
3 | Cc1cc(O)c(C(=O)O)c(/C=C/c2ccc3ccccc3c2)c1 [Sm35, (E)-2-hydroxy-4-methyl-6-(2-(naphthalen-2-yl)vinyl)benzoic acid] | -1.5 ± 3.5 | -3.7 ± 7.9 | 52.2 | 30.3 |  |  | 
4 | Cc1cc(O)c(C(=O)O)c(CCc2ccc3ccccc3c2)c1 [Sm36, 2-hydroxy-4-methyl-6-(2-(naphthalen-2-yl)ethyl)benzoic acid] | 10.9 ± 9.6 | -3.9 ± 6.8 | 39.9 | 37.7 |  |  | 
5 | CCCCCCCCCCCc1cccc(O)c1C(=O)O [Sm1, 6-undecyl salicylic acid] |  |  |  |  | high micromolar range | 348 ± 1.1 | 
6 | O=C(O)c1c(O)cccc1CCc1ccccc1 [Sm22, 2-hydroxy-6-phenethylbenzoic acid] | 98.1 ± 6.1 | 93.1 ± 9.5 | > 100 | > 100 |  |  | completely eliminated all activity
7 | COc1cc(CCc2ccccc2)cc(OC)c1OC [Sm39, 1,2,3-trimethoxy-5-phenethylbenzene] | 102 ± 9.7 | 117 ± 8.1 | > 100 | > 100 |  |  | 
8 | COc1cc(CCc2ccc3ccccc3c2)cc(OC)c1OC [Sm43, 2-(3,4,5-trimethoxyphenethyl)naphthalene] | 106 ± 9.5 | 113 ± 3.6 | > 100 | > 100 |  |  | 
9 | Oc1cc(CCc2ccc3ccccc3c2)cc(O)c1O [Sm44, 5-(2-(naphthalen-2-yl)ethyl)benzene-1,2,3-triol] | 108 ± 10.1 | 53.5 ± 9.6 | > 100 | > 100 |  |  | not active
10 | O=C(O)c1c(O)cccc1/C=C/c1ccccc1 [Sm21, (E)-2-hydroxy-6-styrylbenzoic acid] | 103 ± 8.8 | 98.1 ± 2.1 | > 100 | > 100 |  |  | 
11 | COc1cc(CCc2ccc3ccccc3c2)c(C(=O)O)c(OC)c1 [Sm30, 2,4-dimethoxy-6-(2-(naphthalen-2-yl)ethyl)benzoic acid] | 99 ± 7.6 | 109 ± 2.8 | > 100 | > 100 |  |  | 
12 | COc1cc(/C=C/c2ccccc2)cc(OC)c1OC [Sm38, (E)-1,2,3-trimethoxy-5-styrylbenzene] | 102 ± 11.2 | 120 ± 6.6 | > 100 | > 100 |  |  | 
13 | COc1cc(O)c(C(=O)O)c(CCc2ccc3ccccc3c2)c1 [Sm29, 2-hydroxy-4-methoxy-6-(2(naphthalen-2-yl)ethyl)benzoic acid] | 73 ± 1.9 | 2 ± 7.2 | 64.4 | 71.2 |  |  | 
14 | O=C(O)c1c(O)cc(Cl)cc1/C=C/c1ccc2ccccc2c1 [Sm32, (E)-4-chloro-2-hydroxy-6-(2-(naphthalen-2-yl)vinyl)benzoic acid] | 3.9 ± 6 | 10.9 ± 5.2 | 37.6 | 24 |  |  | 
15 | CCCCCCCCCCCCCc1cccc(O)c1C(=O)O [Sm2, 6-tridecyl salicylic acid] |  |  |  |  | high micromolar range | 341 ± 1.1 | 
16 | CCN(CC)C(=O)c1c(/C=C\c2ccc3ccccc3c2)cccc1OC [Sm15, (Z)-N,N-diethyl-2-methoxy-6-(2-(naphthalen-2-yl)vinyl)benzamide] | 103 ± 7.4 | 121 ± 4.7 | > 100 |  |  |  | 
